Reference: patent US7368470B2, “Substituted 3-pyrrolidine-indole derivatives” (Gruenenthal GmbH, priority 2003, dated 2008)

Assays:
[1] = target: T1, noradrenalin reuptake (NA uptake) (Rattus norvegicus, UniProt Q9WTR4); assay: Noradrenalin reuptake inhibition (NA uptake inhibition) in rat brain synaptosomes; type: biochemical; details: synaptosomes from male rats' brains
T1 construct: These vesicular particles were isolated from the hypothalamus of male rats' brains for NA uptake; from tissue; host or cells: rat brain synaptosomes (P2 fraction; cerebral cortex / hypothalamus of male rats)
T1 sequence (Q9WTR4 1-597): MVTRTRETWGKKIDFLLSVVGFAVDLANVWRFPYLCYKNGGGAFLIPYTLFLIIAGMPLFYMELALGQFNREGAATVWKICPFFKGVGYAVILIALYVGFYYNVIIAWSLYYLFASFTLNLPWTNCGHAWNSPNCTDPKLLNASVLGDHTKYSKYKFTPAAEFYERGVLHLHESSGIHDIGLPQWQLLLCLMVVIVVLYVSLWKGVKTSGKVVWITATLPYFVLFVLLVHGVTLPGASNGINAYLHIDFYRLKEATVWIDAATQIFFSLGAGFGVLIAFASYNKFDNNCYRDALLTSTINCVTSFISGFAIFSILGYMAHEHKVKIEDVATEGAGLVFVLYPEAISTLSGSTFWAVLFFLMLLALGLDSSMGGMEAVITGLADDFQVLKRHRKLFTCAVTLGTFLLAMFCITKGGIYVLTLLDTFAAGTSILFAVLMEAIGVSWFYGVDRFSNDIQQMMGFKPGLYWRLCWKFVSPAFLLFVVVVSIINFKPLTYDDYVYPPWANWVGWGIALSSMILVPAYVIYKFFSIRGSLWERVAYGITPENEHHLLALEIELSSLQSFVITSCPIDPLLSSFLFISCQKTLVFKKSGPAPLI
Description: b) Tests on Noradrenalin Reuptake Inhibition
In order to be able to carry out these in vitro studies, synaptosomes from rats' cerebral cortices were freshly isolated. A “P2” fraction, prepared according to Gray and Whittaker's instructions (E. G. Gray and V. P. Whittaker (1962) J. Anat. 76, 79-88) was used in each case. These vesicular particles were isolated from the hypothalamus of male rats' brains for NA uptake.
A detailed description of the method may be found in the literature (M. Ch. Frink, H.-H. Hennies, W. Englberger, M. Haurand and B. Wilffert (1996) Arzneim.-Frosch./Drug Res. 46 (III), 11, 1029-1036).

[2] = target: T2, serotonin reuptake (5HT uptake) (Rattus norvegicus, UniProt P31652); assay: Serotonin reuptake inhibition (5HT uptake inhibition) in rat brain synaptosomes; type: biochemical; details: synaptosomes from male rats' brains
T2 construct: These vesicular particles were isolated from the hypothalamus of male rats' brains for 5HT uptake; from tissue; host or cells: rat brain synaptosomes (P2 fraction; cerebral cortex / hypothalamus of male rats)
T2 sequence (P31652 whole entry): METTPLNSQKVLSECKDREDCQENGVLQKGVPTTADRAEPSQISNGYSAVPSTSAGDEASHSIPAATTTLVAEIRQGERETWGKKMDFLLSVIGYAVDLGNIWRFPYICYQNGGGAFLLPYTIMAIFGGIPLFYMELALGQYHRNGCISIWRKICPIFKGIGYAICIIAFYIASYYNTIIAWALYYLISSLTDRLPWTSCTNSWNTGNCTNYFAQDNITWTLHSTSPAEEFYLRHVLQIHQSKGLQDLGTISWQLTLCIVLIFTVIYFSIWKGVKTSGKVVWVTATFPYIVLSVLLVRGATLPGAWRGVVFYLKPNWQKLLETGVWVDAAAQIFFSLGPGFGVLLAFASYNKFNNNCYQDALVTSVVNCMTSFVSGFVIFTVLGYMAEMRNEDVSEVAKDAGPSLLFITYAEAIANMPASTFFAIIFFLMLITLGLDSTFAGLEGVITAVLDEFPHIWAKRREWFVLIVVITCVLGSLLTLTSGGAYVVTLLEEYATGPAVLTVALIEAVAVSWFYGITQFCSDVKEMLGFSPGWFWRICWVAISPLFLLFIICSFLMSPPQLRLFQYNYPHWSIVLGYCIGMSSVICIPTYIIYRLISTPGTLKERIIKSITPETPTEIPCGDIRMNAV
Description: a) Tests on Serotonin Reuptake Inhibition
In order to be able to carry out these in vitro studies, synaptosomes from rats' cerebral cortices were freshly isolated. A “P2” fraction prepared according to Gray and Whittaker's instructions (E. G. Gray and V. P. Whittaker (1962) J. Anat. 76, 79-88) was used in each case. These vesicular particles were isolated from the hypothalamus of male rats' brains for 5HT uptake.
A detailed description of the method may be found in the literature (M. Ch. Frink, H.-H. Hennies, W. Englberger, M. Haurand and B. Wilffert (1996) Arzneim.-Forsch./Drug Res. 46 (III), 11, 1029-1036).

[3] = system: binding site 2 of the sodium channel (batrachotoxin (BTX) binding site); assay: Binding test on the sodium channel, binding site 2 (BTX bond), [3H]-batrachotoxinin A20 α-benzoate as ligand; set-up: species or system rat; details: 10 μM; rat cerebrocortex synaptosomes; ligand 10 nM; 25° C., 120 min

| inhibition at 10 µM [1] | inhibition at 10 µM [2] | Structure (SMILES) | BTX bond, % inhibition [10 μM] [3] | NA-uptake, inhibition [10 μM] [1] | 5HT uptake, % inhibition [10 μM] [2] |
| --- | --- | --- | --- | --- | --- |
| 49% | 49% | O=C(c1ccc(SC(F)(F)F)cc1)N1CCC(c2c[nH]c3ccccc23)C1 (stereo not shown) [Compound 18, [3-(1H-indol-3-yl)-pyrrolidin-1-yl]-(4-trifluoromethylsulphanyl-phenyl)-methanone] | – | – | – |
| 59% | 53% | O=[N+]([O-])c1ccc(S(=O)(=O)N2CCC(c3c[nH]c4ccccc34)C2)cc1 (stereo not shown) [Compound 24, 3-[1-(4-nitro-benzenesulphonyl)-pyrrolidin-3-yl]-1H-indole] | – | – | – |
| – | – | Cn1cc(C2CCN(C(=O)C=Cc3ccccc3)C2)c2ccccc21 (stereo not shown) [Compound 26, 1-[3-(1-methyl-1H-indol-3-yl)-pyrrolidin-1-yl]-3-phenyl-propenone] | 93% | 44 | 62% |
| – | – | CCn1cc(C2CCN(C(=O)c3cccnc3)C2)c2ccccc21 (stereo not shown) [Compound 28] | – | 52 | 41% |
| 43% | 64% | CSc1ncccc1C(=O)N1CCC(c2cn(C)c3ccccc23)C1 (stereo not shown) [Compound 37, [3-(1-methyl-1H-indol-3-yl)-pyrrolidin-1-yl]-(2-methylsulphanyl-pyridin-3-yl)-methanone] | – | – | – |
| 43% | 66% | Cn1cc(C2CCN(C(=O)c3cccnc3Cl)C2)c2ccccc21 (stereo not shown) [Compound 40, (2-chloro-pyridin-3-yl)-[3-(1-methyl-1H-indol-3-yl)-pyrrolidin-1-yl]-methanone] | – | – | – |
| 43% | 44% | COCC(=O)N1CCC(c2cn(Cc3cccc(OC)c3)c3ccccc23)C1 (stereo not shown) [Compound 41, 2-methoxy-1-{3-[1-(3-methoxy-benzyl)-1H-indol-3-yl]-pyrrolidin-1-yl}-ethanone] | – | – | – |
| – | – | C#CCn1cc(C2CCN(C(=O)c3cccnc3SC)C2)c2ccccc21 (stereo not shown) [Compound 44, (2-methylsulphanyl-pyridin-3-yl)-[3-(1-prop-2-inyl-1H-indol-3-yl)-pyrrolidin-1-yl]-methanone] | – | 49 | 60% |
| – | – | CCn1cc(C2CCN(C(=O)c3ccc(C(F)(F)F)cc3)C2)c2ccccc21 (stereo not shown) [Compound 48, [3-(11-ethyl-1H-indol-3-yl)-pyrrolidin-1-yl]-(4-trifluoromethyl-phenyl)-methanone] | – | 40 | 43% |
| 100% | 68% | CC#CCn1cc(C2CCN(CC(=O)Nc3cc(C)nn3C)C2)c2ccccc21 (stereo not shown) [Compound 49, 2-[3-(1-but-2-ynyl-1H-indol-3-yl)-pyrrolidin-1-yl]-N-(2,5-dimethyl-2H-pyrazol-3-yl)-acetamide] | – | – | – |
| 54% | 79% | CCn1cc(C2CCN(CC(=O)Nc3scc(C)c3C#N)C2)c2ccccc21 (stereo not shown) [Compound 52, N-(3-cyano-4-methyl-thiophen-2-yl)-2-[3-(1-ethyl-1H-indol-3-yl)-pyrrolidin-1-yl]-acetamide] | – | – | – |

| Structure (SMILES) | inhibition at 10 µM [1] | inhibition at 10 µM [2] | BTX bond, % inhibition [10 μM] [3] | NA-uptake, inhibition [10 μM] [1] | 5HT uptake, % inhibition [10 μM] [2] |
| --- | --- | --- | --- | --- | --- |
| O=C(c1ccc([N+](=O)[O-])cc1Cl)N1CCC(c2cn(Cc3cccc(F)c3)c3ccccc23)C1 (stereo not shown) [Compound 20, (2-chloro-4-nitro-phenyl)-{3-[1-(3-fluoro-benzyl)-1H-indol-3-yl]-pyrrolidin-1-yl}-methanone] | 43% | 89% | 91% | – | – |
| Cc1ccc(F)c(C(=O)N2CCC(c3cn(Cc4ccc(C#N)cc4)c4ccccc34)C2)c1Cl (stereo not shown) [Compound 31, 4-{3-[1-(2-chloro-6-fluoro-3-methyl-benzoyl)-pyrrolidin-3-yl]-indol-1-ylmethyl}-benzonitrile] | 41% | 62% | 92% | – | – |
| CCn1cc(C2CCN(C(=O)c3cc(C(F)(F)F)ccc3Cl)C2)c2ccccc21 (stereo not shown) [Compound 38, (2-chloro-5-trifluoromethyl-phenyl)-[3-(1-ethyl-1H-indol-3-yl)-pyrrolidin-1-yl]-methanone] | 49% | – | 89% | – | – |
